What all share (format): cell-based
The target of assay [1] is T1, 5-hydroxytryptamine receptor 3A (Homo sapiens) (UniProt P46098).
T1 sequence (whole entry): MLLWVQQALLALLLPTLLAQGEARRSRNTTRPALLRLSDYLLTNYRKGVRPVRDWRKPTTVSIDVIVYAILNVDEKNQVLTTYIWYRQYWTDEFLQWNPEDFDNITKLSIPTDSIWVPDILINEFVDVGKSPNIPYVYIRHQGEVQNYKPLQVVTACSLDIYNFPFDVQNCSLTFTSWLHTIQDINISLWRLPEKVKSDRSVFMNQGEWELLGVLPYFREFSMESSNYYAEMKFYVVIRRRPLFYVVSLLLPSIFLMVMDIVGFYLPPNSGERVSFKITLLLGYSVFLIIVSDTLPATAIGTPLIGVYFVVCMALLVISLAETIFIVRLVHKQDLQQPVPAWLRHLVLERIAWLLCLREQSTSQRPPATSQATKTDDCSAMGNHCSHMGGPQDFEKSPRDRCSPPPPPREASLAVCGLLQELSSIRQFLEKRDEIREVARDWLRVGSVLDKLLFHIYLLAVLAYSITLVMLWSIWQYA
Kind of assay: Binding affinity to C-terminal-His6-tagged 5HT3A receptor (unknown origin) expressed in HEK293 cells assessed as decrease in fluorescence at 10 to 500 nM after 2 hrs by fluorimetric analysis in presence of granisetron.

In assay [2] the target is T2, 5-hydroxytryptamine receptor 3A (Homo sapiens, UniProt P46098).
T2 sequence (P46098 whole entry): T1 sequence (whole entry)
Kind of assay: Binding affinity to C-terminal-His6-tagged 5HT3A receptor (unknown origin) expressed in HEK293 cells after 2 hrs by fluorimetric analysis.

The target in assay [3] is T1, 5-hydroxytryptamine receptor 3A (Homo sapiens). Kind of assay: Binding affinity to C-terminal-His6-tagged 5HT3A receptor (unknown origin) expressed in HEK293 cells assessed as decrease in fluorescence at 10 to 500 nM after 2 hrs by fluorimetric analysis.

Calls of active or inactive are those of the source. No cut-off for these calls is given here.

For the compound `CN(C)c1ccc2c(-c3ccc(C(=O)NCCCCCNC(=O)CCn4cc(CCN)c5cc(O)ccc54)cc3C(=O)[O-])c3ccc(=[N+](C)C)cc-3oc2c1`, the result in assay [1] was inactive. In assay [2], this compound registered a Kd of 83 nM. The result in assay [3] was Active.
